# In patent US7407988B2, “Carbamic acid compounds comprising a sulfonamide linkage as HDAC inhibitors” (Topotarget UK Limited, priority 2000, dated 2008):
# Read-outs that look alike come from different tables or passages of the source.
# Assays:
# [1] = test system: NHEK-Ad primary human adult keratinocyte line; assay: Secondary assay: cell proliferation WST-1, NHEK-Ad; format: cell-based; settings: Table 2, NHEK-AD, 48 h, read-out: Cell Proliferation Inhibition WST-1 (IC50 unless otherwise specified) NHEK-AD
# [2] = test system: JURKAT human T-cell line; assay: Secondary assay: cell proliferation WST-1, Jurkat; format: cell-based; settings: Table 2, 48 h, read-out: Cell Proliferation Inhibition WST-1 (IC50 unless otherwise specified) Jurkat
# [3] = test system: K11 HPV E7 transformed human keratinocyte line; assay: Secondary assay: cell proliferation WST-1, K11; format: cell-based; settings: Table 2, 48 h, read-out: Cell Proliferation Inhibition WST-1 (IC50 unless otherwise specified) K11
# [4] = test system: HeLa cells; assay: Secondary assay: cell proliferation WST-1, HeLa; format: cell-based; settings: Homo sapiens, Table 2, 48 h, read-out: Cell Proliferation Inhibition WST-1 (IC50 unless otherwise specified) HeLa
# [5] = test system: HDAC (HeLa cell extract); assay: Primary assay: deacetylase activity, HeLa cell extract as source of HDAC; format: biochemical, human
# From the text: Briefly, this assay relies on the release of radioactive acetate from a radioactively labelled histone fragment by the action of HDAC enzyme. Test compounds, which inhibit HDAC, reduce the yield of radioactive acetate. Signal (e.g., scintillation counts) measured in the presence and absence of a test compound provide an indication of that compound's ability to inhibit HDAC activity. Decreased activity indicates increased inhibition by the test compound.
# The histone fragment was an N-terminal sequence from histone H4, and it was labelled with radioactively labelled acetyl groups using tritiated acetylcoenzyme A (coA) in conjunction with an enzyme which is the histone acetyltransferase domain of the transcriptional coactivator p300. […] The acetylated peptide was then separated from free acetyl coA by size exclusion chromatography on Sephadex G-15 (Sigma G-15-120), using distilled H2O as the mobile phase.
# After purification of the radiolabelled histone fragment, it was incubated with a source of HDAC (e.g., an extract of HeLa cells (a rich source of HDAC), recombinantly produced HDAC1 or HDAC2) and any released acetate was extracted into an organic phase and quantitatively determined using scintillation counting. By including a test compound with the source of HDAC, that compound's ability to inhibit the HDAC was determined.
# Two cell volumes of extraction buffer were used, and particulate material was centrifuged out (20800 g, 4° C., 10 min). The supernatant extract having deacetylase activity was aliquotted and frozen for storage.
# A source of HDAC (e.g., 2 μL of crude HeLa extract, 5 μL of HDAC1 or HDAC2; in elution buffer, as above) was incubated with 3 μL of radioactively labelled peptide along with appropriate dilutions of candidate compounds (1.5 μL) in a total volume of 150 μL of buffer (20 mM Tris pH 7.4, 10% glycerol). The reaction was carried out at 37° C. for one hour, after which the reaction was stopped by adding 20 μL of 1 M HCl/0.4 M sodium acetate. […] Radioactivity was measured using a Tri-Carb 21 00TR Liquid Scintillation Analyzer (Packard).
# Percent activity (% activity) for each test compound was calculated as: % activity={(S^C−B)/(S°−B)}×100 wherein S^C denotes signal measured in the presence of enzyme and the compound being tested, S° denotes signal measured in the presence of enzyme but in the absence of the compound being tested, and B denotes the background signal measured in the absence of both enzyme and compound being tested.
# [6] = Table 1, read-out: HDAC Inhibition (IC50 unless otherwise specified) HeLa
# [7] = comparative tables, HDAC inhibition, read-out: HeLa IC50
Structure (SMILES),IC50 [1] [nM],IC50 [2] [nM],IC50 [3] [nM],"IC50 ([1]; Homo sapiens, Keratinocyte) [nM]",IC50 [4] [nM],IC50 ([2]; Homo sapiens) [nM],"IC50 ([3]; Homo sapiens, Keratinocyte) [nM]","IC50 [5, 6] [nM]",melting point,"IC50 [5, 7] [nM]"
"Nc1ccccc1NC(=O)c1ccc(CNC(=O)OCc2cccnc2)cc1 [MS-275, reference compound]",3100,365,9160,,,,,,,
"O=C(/C=C/c1cccc(S(=O)(=O)Nc2ccccc2)c1)NO [PX105684, N-Hydroxy-3-(3-phenylsulfamoylphenyl)acrylamide]",,,,1500,2200,200,2400,,,
O=C(CCCCCCCS(=O)(=O)Nc1ccccc1)NO [PX117245],,,,520,310,1100,,16,87 to 88 °C,
"O=C(/C=C/c1cccc(NS(=O)(=O)/C=C/c2ccccc2)c1)NO [PX117446, N-Hydroxy-3-{3-[(E)-2-phenylethenesulfonylamino]phenyl}acrylamide]",,,,,6000,430,3700,18,171 °C,18
"O=C(/C=C/C#Cc1ccc(S(=O)(=O)Nc2ccccc2)cc1)NO [PX117453, E-5-(4-Phenylsulfamoylphenyl)pent-2-en-4-ynoic acid hydroxyamide]",,,,,5700,1100,4200,45,161 to 163 °C,45
"O=C(/C=C/c1cccc(S(=O)(=O)NCc2ccco2)c1)NO [PX117710, 3-{3-[(Furan-2-ylmethyl)-sulfamoyl]-phenyl}-N-hydroxyacrylamide]",,,,,5000,420,4000,125,165 °C,
"COc1cccc(NS(=O)(=O)c2cccc(/C=C/C(=O)NO)c2)c1 [PX117712, N-Hydroxy-3-[3-(3-methoxy-phenylsulfamoyl)-phenyl]-acrylamide]",,,,,1100,130,650,14,137 °C,
"O=C(/C=C/c1cccc(S(=O)(=O)Nc2ccc(-c3ccccc3)cc2)c1)NO [PX117715, 3-[3-(Biphenyl-4-ylsulfamoyl)-pheny]-N-hydroxy-acrylamide]",,,,,1500,290,930,10,188 °C,
"O=C(/C=C/c1cccc(S(=O)(=O)Nc2cccc(Br)c2)c1)NO [PX117734, 3-[3-(3-Bromo-phenylsulfamoyl)-phenyl]-N-hydroxy-acrylamide]",,,,,2100,79,880,8,135.5 to 136.5 °C,
"O=C(/C=C/c1cccc(S(=O)(=O)NC(c2ccccc2)c2ccccc2)c1)NO [PX117773, 3-[3-(Benzhydryl-sulfamoyl)-phenyl]-N-hydroxy-acrylamide]",,,,,3400,1200,6200,67,180 °C,
"O=C(/C=C/c1cccc(S(=O)(=O)NC(Cc2ccccc2)c2ccccc2)c1)NO (stereo not drawn) [PX117774, 3-[3-(1,2-Diphenyl-ethylsulfamoyl)-phenyl]-N-hydroxy-acrylamide]",,,,,6400,1000,7000,396,150 °C,
"O=C(/C=C/c1cccc(S(=O)(=O)Nc2ccc(OC(F)(F)F)cc2)c1)NO [PX117775, N-Hydroxy-3-[3-(4-trifluoromethoxy-phenylsulfamoyl)-phenyl]-acrylamide]",,,,,2100,530,5300,16,131 °C,
"COc1ccc(S(=O)(=O)Nc2cccc(/C=C/C(=O)NO)c2)cc1OC [PX117780, 3-[3-(3,4-Dimethoxy-benzenesulfonylamino)-phenyl]-N-hydroxy-acrylamide]",,,,,16800,4000,10500,125,158 °C,
"O=C(/C=C/c1cccc(NS(=O)(=O)c2ccc(-c3ccccc3)cc2)c1)NO [PX117781, 3-[3-(Biphenyl-4-sulfonylamino)-phenyl]-N-hydroxy-acrylamide]",,,,,3400,800,2200,58,115 °C,
"COc1ccc(NS(=O)(=O)c2cccc(/C=C/C(=O)NO)c2)cc1OC [PX117782, 3-[3-(3,4-Dimethoxy-phenylsulfamoyl)-phenyl]-N-hydroxy-acrylamide]",,,,,2900,350,15600,38,191 °C,
"O=C(/C=C/c1cccc(S(=O)(=O)Nc2ccccc2F)c1)NO [PX117787, 3-[3-(2-Fluoro-phenylsulfamoyl)-phenyl]-N-hydroxy-acrylamide]",,,,,2600,500,1200,67,102 to 103 °C,
"O=C(/C=C/c1cccc(S(=O)(=O)Nc2cccc(F)c2)c1)NO [PX117788, 3-[3-(3-Fluoro-phenylsulfamoyl)-phenyl]-N-hydroxy-acrylamide]",,,,,2000,290,1700,36,130 to 133 °C,
"O=C(/C=C/c1cccc(S(=O)(=O)Nc2ccc(OC(F)F)cc2)c1)NO [PX117789, 3-[3-(4-Difluoromethoxy-phenylsulfamoyl)-phenyl]-N-hydroxy-acrylamide]",,,,,1100,300,800,30,91 to 93 °C,
"COc1ccc(C(F)(F)F)cc1NS(=O)(=O)c1cccc(/C=C/C(=O)NO)c1 [PX117791, N-Hydroxy-3-[3-(2-methoxy-5-trifluoromethyl-phenylsulfamoyl)-phenyl]-acrylamide]",,,,,3600,1300,6700,250,207 °C (dec.),
"O=C(/C=C/c1ccc(S(=O)(=O)Nc2ccc(-c3ccccc3)cc2)cc1)NO [PX117792, N-Hydroxy-3-[4-(biphenyl-4-ylsulfamoyl)-phenyl]-acrylamide]",,,,,1400,430,400,48,211 to 211.5 °C,
"O=C(/C=C/c1ccc(NS(=O)(=O)c2ccc(-c3ccccc3)cc2)cc1)NO [PX117793, (E)-N-Hydroxy-3-[4-(4-biphenylsulfonylamino)-phenyl]-2-propenamide]",,,,,2000,500,2700,50,190 to 191.5 °C,
"COc1ccc(S(=O)(=O)Nc2ccc(/C=C/C(=O)NO)cc2)cc1OC [PX117794, (E)-N-Hydroxy-3-[4-(3,4-dimethoxyphenylsulfonylamino)-phenyl]-2-propenamide]",,,,,3300,600,2300,24,178.5 to 179 °C,
"O=C(/C=C/c1ccc(S(=O)(=O)Nc2ccc(Br)cc2)cc1)NO [PX117795, N-Hydroxy-3-[4-(4-bromo-phenylsulfamoyl)-phenyl]-acrylamide]",,,,,3400,510,1500,13,219 to 220.5 °C,
CCn1c2ccccc2c2cc(NS(=O)(=O)c3cccc(/C=C/C(=O)NO)c3)ccc21 [PX117798],,,,,900,3600,350,50,130 to 133 °C,
"CC(/C=C/C(=O)NO)=C\[C@@H](C)C(=O)c1ccc(N(C)C)cc1 [TSA, trichostatin A, reference compound]",,,,200,350,42,380,,,
